Drawing on patent USRE49735E1 (BRISTOL-MYERS SQUIBB COMPANY, priority 2010, dated 2023), this text covers EC50 for twelve molecules.

Structures are written as SMILES. “And” between values parts separate entries of the source, which are not always exact repeats. Identical values can stand only once.

The target in this experiment is human mGluR5A (Homo sapiens, UniProt P41594). In words: mGluR5 FLIPR Assay. It counts as cell-based. As to conditions: positive modulator activity; HEK293 (ZF) cells with human mGluR5A and rat GLAST; Ca++ response to ~EC10 glutamate.
human mGluR5A, sequence (P41594 21-1180 isoform P41594-2): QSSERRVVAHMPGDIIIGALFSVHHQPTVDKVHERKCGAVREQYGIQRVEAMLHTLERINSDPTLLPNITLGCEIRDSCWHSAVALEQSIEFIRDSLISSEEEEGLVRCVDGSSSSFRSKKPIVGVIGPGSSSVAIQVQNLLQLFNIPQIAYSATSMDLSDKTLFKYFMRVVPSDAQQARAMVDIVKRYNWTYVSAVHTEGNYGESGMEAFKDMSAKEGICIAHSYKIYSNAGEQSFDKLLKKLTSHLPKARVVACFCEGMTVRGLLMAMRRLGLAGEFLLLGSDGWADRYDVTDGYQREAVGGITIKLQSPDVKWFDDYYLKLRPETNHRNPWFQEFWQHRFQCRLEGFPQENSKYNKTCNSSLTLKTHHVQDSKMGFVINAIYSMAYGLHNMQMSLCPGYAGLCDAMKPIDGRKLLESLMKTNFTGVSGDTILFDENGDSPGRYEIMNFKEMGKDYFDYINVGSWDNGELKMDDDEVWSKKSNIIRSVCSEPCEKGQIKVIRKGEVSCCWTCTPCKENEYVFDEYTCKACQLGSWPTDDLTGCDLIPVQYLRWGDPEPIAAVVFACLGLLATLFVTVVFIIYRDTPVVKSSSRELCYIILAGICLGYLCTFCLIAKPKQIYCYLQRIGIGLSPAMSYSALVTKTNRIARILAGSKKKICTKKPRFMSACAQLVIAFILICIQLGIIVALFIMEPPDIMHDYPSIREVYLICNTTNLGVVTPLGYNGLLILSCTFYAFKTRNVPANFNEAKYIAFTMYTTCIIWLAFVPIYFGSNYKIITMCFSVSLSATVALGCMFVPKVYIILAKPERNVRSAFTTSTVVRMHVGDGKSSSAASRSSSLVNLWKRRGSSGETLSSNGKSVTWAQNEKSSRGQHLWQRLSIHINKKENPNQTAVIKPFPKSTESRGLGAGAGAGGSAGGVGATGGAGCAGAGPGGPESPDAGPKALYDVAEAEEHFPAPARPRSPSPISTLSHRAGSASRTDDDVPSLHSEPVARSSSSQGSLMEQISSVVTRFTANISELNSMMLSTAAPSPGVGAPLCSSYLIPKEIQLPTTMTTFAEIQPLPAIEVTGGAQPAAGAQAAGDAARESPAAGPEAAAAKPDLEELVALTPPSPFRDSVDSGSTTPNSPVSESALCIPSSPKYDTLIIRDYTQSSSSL

Usually EC50 stands for the midpoint of the concentration-response curve. A higher EC50 goes with a less potent agent. On to `O=C1N[C@H](c2cc(C#Cc3cncc(F)c3)cnc2F)[C@@H](c2cccc(F)c2)O1` [Example 140, (4R,5R)-4-(2-Fluoro-5-((5-fluoropyridin-3-yl)ethynyl)pyridin-3-yl)-5-(3-fluorophenyl)oxazolidin-2-one], for which the EC50 is < 100 nM. In the case of `COc1cccc([C@H]2OC(=O)N[C@@H]2c2cccc(C#Cc3cccc(O)n3)c2)c1` [Example 77, (4R,5R)-4-(3-((6-Hydroxypyridin-2-yl)ethnyl)phenyl)-5-(3-methoxyphenyl)-oxazolidin-2-one], the EC50 was > 1000 nM. In the case of `COc1cccc([C@@H]2OC(=O)N[C@@H]2c2cccc(C#Cc3ccccc3)c2)c1` (single isomer, unassigned) [Example 3], the EC50 is 100 to 1000 nM and 283 nM. `O=C1N[C@H](c2cc(C#Cc3ccccc3)ncn2)[C@@H](c2cccc(F)c2)O1` (racemic) [Example 271]: the EC50 was > 1000 nM. With `O=C1N[C@H](c2cc(C#Cc3cccc(F)c3)ccn2)[C@@H](c2ccc(F)cc2)O1` (single isomer, unassigned) [Example 355] the figure was < 100 nM; with `O=C1N[C@H](c2cncc(C#Cc3cccnc3)c2)[C@@H](c2cccc(F)c2)O1` [Example 35, (4R,5R)-5-(3-Fluorophenyl)-4-(5-(pyridin-3-ylethynyl)pyridin-3-yl)oxazolidin-2-one], < 100 nM and 6.3 nM.

Turning to `O=C1N[C@H](c2cncc(C#Cc3cccc(F)c3)c2)[C@@H](c2cc(F)ccc2F)O1` [Example 283], the half-maximal effective concentration (EC50) is < 100 nM.

Regarding `Cc1cccc(C#Cc2cncc([C@H]3NC(=O)O[C@@H]3c3cc(F)ccc3F)c2)c1` [Example 387, (4R,5R)-5-(2,5-difluorophenyl)-4-(5-(m-tolylethynyl)pyridin-3-yl)oxazolidin-2-one], the EC50 was > 1000 nM. For `COc1cccc([C@H]2OC(=O)N[C@@H]2c2cccc(C#Cc3cncnc3)c2)c1` [Example 65, (4R,5R)-5-(3-Methoxyphenyl)-4-(3-(pyrimidin-5-ylethynyl)phenyl)oxazolidin-2-one] the value was 100 to 1000 nM and 139 nM.

Turning to `O=C1N[C@@H](c2cccc(C#Cc3ccccc3)c2)[C@H](c2nc(-c3cccnc3)no2)O1` [Example 165], the EC50 was > 1000 nM.

Turning to `O=C1N[C@H](c2cccc(C#Cc3ccccc3)n2)[C@@H](c2ccc(F)cc2F)O1` (single isomer, unassigned) [Example 309], the EC50 was < 100 nM. With `C[C@@]1(c2cccc(F)c2)OC(=O)N[C@@H]1c1cncc(C#Cc2ccccc2)c1` [Example 224], the concentration for a half-maximal effect (EC50) was > 1000 nM.
